# Laboratory results as given in the SangsterLogP compilation.
row,SMILES,logP
1,Cc1ccc(N)c([N+](=O)[O-])c1,1.82
2,Nc1cccc2ncccc12,1.27
3,Nc1cccc2c(N)cccc12,0.89
4,O=[N+]([O-])c1ccc2nn[nH]c2c1,1.95
5,Nc1cccc2cccc(N)c12,1.78
6,O=[N+]([O-])c1ccc2nc[nH]c2c1,1.5
7,Nc1ccc2[nH]ncc2c1,0.65
8,Nc1ccc2[nH]ccc2c1,1.13
9,Nc1cc2ccccc2cc1N,1.54
10,Cc1cc(N)c([N+](=O)[O-])cc1C,2.07
11,Nc1nc2ccccc2[nH]1,1.34
12,O=[N+]([O-])c1ccncc1,0.6
